Results from patent EP0516660B1, “USE OF S-ADENOSYL METHIONINE AS AN AGENT AGAINST VIRAL INFECTIONS BY RETROVIRUSES” (Grundmann, Ewald, Dr., priority 1990, dated 1991).

System: HIV
Test: HIV-infected lymphocyte cultures, virus amount determined as radioactive reverse transcriptase in the culture supernatant
Assay type: cell-based
Conditions: for Reverse Transkriptase: HIV-Zahl in Lymphocyten-Kultur
Protocol: Lymphocyten-Kulturen aus der Nabelschnur von Neugeborenen (H. Rübsamen-Waigmann et al. "Isolation of Variants of Lymphocytopathic Retroviruses from the Peripheral Blood and Cerebrospinal Fluid of Patients with ABC or AIDS", J. Medical Virology 19, S. 335 bis 344; 1986) wurden mit Viren, die dem Blut von AIDS-Kranken entnommen waren, geimpft. Dazu werden zu 5 ml der Lymphocyten-Kultur (1 · 10⁶ Zellen pro ml) 0,5 ml einer HIV-Suspension gegeben, die 10⁴ bis 10⁵ infektiöse Partikel pro ml enthält. Die Kulturmedien werden mit unterschiedlichen Mengen S-Adenosyl-L-methionintosylat-bis-Sulfat versetzt. Ein Drittel bis zur Hälfte des jeweiligen Kulturmediums werden nach 1 bis 2 Tagen durch frisches Kulturmedium gleicher Zusammensetzung ersetzt.
Retroviren zeichnen sich dadurch aus, daß sie ausschließlich RNA (Ribonukleinsäure) als Nukleinsäure enthalten und eine spezielle Polymerase, nämlich Reverse Transkriptase benötigen, die nach der Infektion in der Wirtszelle aus der Virus-RNA eine in die DNA der Wirtszelle einbaubare Virus-DNA bildet, vgl. H. Rübsamen "Biochemie der Tumorviren", Chemie in unserer Zeit 17, S. 169 bis 180; 1983. Daraus ergibt sich eine Nachweismethode für Retroviren, die auf der für diese typischen Reversen Transkriptase und dem durch diese in die DNA eingebauten Tritium-markierten Thymidin beruht, vgl. H. Rübsamen et al., l.c.:
In Abhängigkeit vom positiven Nachweis der Infektion durch mikroskopische Kontrolle werden nach 3 bis 5 Tagen jeweils 5 ml der überstehenden Kulturflüssigkeit durch Zentrifugieren (1o min bei 10.000 g) geklärt. Die so geklärte Probe wird bei 100.000 g/50 min zentrifugiert und der Rückstand in 60 µl eines Tris-Puffers lysiert (10 mM Tris, 0,2 % Triton X-100, 1 mM EDTA, 5 mM Dithiothreitol, 60 mM KCl, pH 7,3).
Jeweils 30 µl des Lysats werden mit 30 µl Templat (0,01 mg/ml Poly(rA)·oligo (dT) (Pharmacia, Uppsala, Schweden) in 5 mM MgCl₂, 2,4 mM Dithiothreitol, 60 mM KCl und 0,0034 mM Methyl-[³H]thymidin-5'-Triphosphat; 48 Ci/mM, Amersham, Bucks; England) 90 min bei 37° C inkubiert. Die Reaktion wird durch Zugabe von 10-proz. Laurylsarkosin bis zu einer Laurylsarkosin-Endkonzentration von 1,4 % beendet. Die freie und in das RNA/DNA-Hybrid eingebaute Radioaktivität von 10 µl des mit Laurylsarkosin versetzten Inkubats werden dann in üblicher Weise an einem DEAE-Filter getrennt, das nach dem Waschen und Trocknen in eine Szintillationsflüssigkeit gegeben wird. Die Radioaktivität wird dann mit einem Szintillationszähler gemessen. Die eingebaute Radioaktivität (Zerfälle pro min pro 5 ml) nach Abzug des Blindwertes ist dann ein Maß für die in der überstehenden Kulturflüssigkeit enthaltene Reverse Transkriptase und damit für die Menge an Retroviren, die in der Kultur enthalten sind.

For `C[S+](CC[C@H](N)C(=O)O)C[C@H]1O[C@@H](n2cnc3c(N)ncnc32)[C@H](O)[C@@H]1O` (stereo partly drawn) [Adenosylmethionin, S-Adenosyl-L-methionintosylat-bis-Sulfat], which “Reverse Transkriptase” value (Adenosylmethionin 4 µg/ml) is on record?
Its value is 114 000 counts/min und 5 ml.

And the “Reverse Transkriptase” value (Adenosylmethionin 40 µg/ml)?
Its value is 86 000 counts/min und 5 ml.

What about the “Reverse Transkriptase” value (Adenosylmethionin 200 µg/ml) of the same molecule?
The value was 73 000 counts/min und 5 ml.

What about the “Reverse Transkriptase” value (Adenosylmethionin 400 µg/ml) of the same molecule?
The value was 60 000 counts/min und 5 ml.

And the “Reverse Transkriptase” value (Adenosylmethionin 1000 µg/ml)?
Its value is 29 000 counts/min und 5 ml.

What about the IC50 (Human immunodeficiency virus 1, Lymphocyte, read-out: Halbwertskonzentration, bei der die Retrovirenkonzentration auf die Hälfte zurückgeht) of the same molecule?
Its IC50 is 100 to 200 µg/mL.
